Literature values in US9125953B2, “Halogenated ether complex” (SAPIOTEC GMBH, priority 2010, dated 2015).

## OC[C@H]1O[C@@H]2O[C@H]3[C@H](O)[C@@H](O)[C@@H](O[C@H]4[C@H](O)[C@@H](O)[C@@H](O[C@H]5[C@H](O)[C@@H](O)[C@@H](O[C@H]6[C@H](O)[C@@H](O)[C@@H](O[C@H]7[C@H](O)[C@@H](O)[C@@H](O[C@H]1[C@H](O)[C@H]2O)O[C@@H]7CO)O[C@@H]6CO)O[C@@H]5CO)O[C@@H]4CO)O[C@@H]3CO [α-cyclodextrin]
  solubility of unsubstituted α-cyclodextrin in water: 14.5 % by weight
